Earlier results, collected in patent US20170157075A1, “Edible Compositions and Methods for Promoting Alpha Brain Waves” (priority 2015, published 2017).
Values belong to the compound of their own block, whether it stands above or below them.

Key:
[1] = single 100 mg nighttime dose; placebo-controlled study
[2] = estimated
[3] = not given; remark: listed apart in the source
[4] = 300 mg per day
[5] = 600-900 mg daily; twelve weeks
[6] = daily 20 mg for every 10 pounds of body weight; controlled study
[7] = 300 mg per day; controlled trial
[8] = not given; remark: listed apart in the source

- share of an oral dose that ends up producing serotonin in the body [2]: 70%
Compound: N[C@@H](Cc1c[nH]c2ccc(O)cc12)C(=O)O [5-HTP, 5-hydroxytryptophan]
- effect on duration and depth of sleep [1]: sufficient to improve the duration and depth of sleep
- side effects or interactions reported during the studies (cited 5-HTP studies, 100-900 mg daily): mild gastrointestinal disturbances in some people, mild nausea, heartburn, flatulence, feelings of fullness, and rumbling sensations
- effect of high doses on brain dopamine (high doses, over time (Hinz et al. 2011, 2012)): can lead over time to depletion of brain dopamine
- doses with no toxicity reports (humans, Examine.com summary): ≤ 50 mg/kg bodyweight
- share of subjects with migraine attacks reduced in frequency, severity and duration ([3]; 400 mg per day, well-controlled trial): 90%
- reduction of migraine headache attacks versus prescription medications ([3]; 600 mg per day, adults, two double blind studies): as effective as prescription medications
- effect in depression [4]: often effective
- average weight loss [5]: 11 lbs
- response of children with migraines and sleep problems [6]: responded well
- effect on symptoms of fibromyalgia [7]: effective in reducing many symptoms of fibromyalgia

Compound: N[C@@H](Cc1c[nH]c2ccccc12)C(=O)O [L-tryptophan]
- therapeutic effect on cluster of mood symptoms versus placebo ([8]; 6 grams daily for 17 days, three consecutive cycles, 37 patients treated, 34 placebo): significant (p=0.004) therapeutic effect
- withdrawals due to drug side effects ([8]; 6 grams daily, 71 women include placebo group): 1 of 71 women
